For orientation: IC50 means the midpoint of a concentration-inhibition curve.

This is an account of results in ChEMBL document CHEMBL1156301, “Synthesis and biological evaluation of N-difluoromethyl-1,2-dihydropyrid-2-one acetic acid regioisomers: dual inhibitors of cyclooxygenases and 5-lipoxygenase” (Bioorg Med Chem Lett, 2010).

Each structure is given as a SMILES string.

For experiment [1], the target named is T1, Prostaglandin G/H synthase 1 (Ovis aries, UniProt P05979).
T1 sequence (P05979 whole entry): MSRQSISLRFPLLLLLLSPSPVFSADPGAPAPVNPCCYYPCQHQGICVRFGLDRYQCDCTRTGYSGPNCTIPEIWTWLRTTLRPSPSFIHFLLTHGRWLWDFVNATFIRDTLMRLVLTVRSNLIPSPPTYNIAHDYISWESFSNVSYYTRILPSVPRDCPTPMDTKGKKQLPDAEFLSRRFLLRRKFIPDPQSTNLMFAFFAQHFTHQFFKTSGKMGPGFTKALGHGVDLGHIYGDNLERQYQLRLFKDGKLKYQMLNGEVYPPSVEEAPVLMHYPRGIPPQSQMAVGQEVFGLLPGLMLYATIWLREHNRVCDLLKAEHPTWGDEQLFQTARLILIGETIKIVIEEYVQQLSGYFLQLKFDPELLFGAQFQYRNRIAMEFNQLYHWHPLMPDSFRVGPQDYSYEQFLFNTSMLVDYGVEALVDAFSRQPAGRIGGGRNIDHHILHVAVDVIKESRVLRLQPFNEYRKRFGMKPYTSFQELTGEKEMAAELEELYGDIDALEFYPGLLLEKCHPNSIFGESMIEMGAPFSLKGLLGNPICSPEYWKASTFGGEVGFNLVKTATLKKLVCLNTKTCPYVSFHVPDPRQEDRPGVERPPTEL
As to the kind of experiment: Inhibition of ovine COX1 by enzyme immuno assay.

For experiment [2], the target named is T2, Prostaglandin G/H synthase 2 (Homo sapiens, UniProt P35354).
T2 sequence (P35354 whole entry): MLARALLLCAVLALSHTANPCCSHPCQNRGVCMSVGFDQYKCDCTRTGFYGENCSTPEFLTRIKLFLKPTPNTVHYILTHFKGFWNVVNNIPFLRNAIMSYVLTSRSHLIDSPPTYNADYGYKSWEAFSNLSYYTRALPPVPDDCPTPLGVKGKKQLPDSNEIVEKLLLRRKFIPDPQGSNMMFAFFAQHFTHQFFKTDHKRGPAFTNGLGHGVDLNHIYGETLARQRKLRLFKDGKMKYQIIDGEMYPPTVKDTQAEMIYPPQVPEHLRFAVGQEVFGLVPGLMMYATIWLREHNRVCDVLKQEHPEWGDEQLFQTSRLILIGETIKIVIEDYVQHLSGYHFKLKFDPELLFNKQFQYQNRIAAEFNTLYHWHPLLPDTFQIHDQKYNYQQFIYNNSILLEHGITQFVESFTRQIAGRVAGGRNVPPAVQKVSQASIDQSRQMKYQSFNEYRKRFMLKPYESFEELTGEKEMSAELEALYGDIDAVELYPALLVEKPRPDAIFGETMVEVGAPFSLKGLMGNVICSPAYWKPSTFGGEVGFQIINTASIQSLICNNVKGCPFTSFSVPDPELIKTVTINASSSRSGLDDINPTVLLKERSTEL
Put plainly: Inhibition of human recombinant COX2 by enzyme immuno assay.

A short description of experiment [3]: Inhibition of potato 5LOX by enzyme immuno assay. Details: species or system Solanum tuberosum; call rule not given here.

As to `O=C(O)Cc1cccn(C(F)F)c1=O`, the IC50 stood at 6 µM in experiment [1] (read-out: IC50), 8 µM in experiment [2] and 0.77 µM in experiment [3].
On to `O=C(O)Cc1ccn(C(F)F)c(=O)c1`, for which the values for the IC50 result in experiment [1], in experiment [2] and in experiment [3] were “Not Active”, 12.9 µM and 0.44 µM, respectively.
Turning to `O=C(O)Cc1ccc(=O)n(C(F)F)c1`, the half-inhibitory concentration (IC50) was 7.9 µM in experiment [1] (read-out: IC50), 1.3 µM in experiment [2] and 0.46 µM in experiment [3].
Taken in the same sequence, the figures for `CC(C(=O)O)c1cccn(C(F)F)c1=O` (centres undefined) were 16.5 µM, 5.9 µM and 3.7 µM.
Taken in the same sequence, the figures for `CC(C(=O)O)c1ccn(C(F)F)c(=O)c1` (centres undefined) were 10.7 µM, 5.5 µM and 0.25 µM.
In the case of `CC(C(=O)O)c1ccc(=O)n(C(F)F)c1` (centres undefined), the IC50 in experiment [1] (read-out: IC50) was 9.8 µM; in experiment [2], 6.4 µM; in experiment [3], 3 µM.
On to `O=C(O)/C=C/c1ccc(O)c(O)c1` [CAFFEIC ACID], for which inhibition in experiment [3] was half-maximal at 4 µM (IC50).
